How the values were obtained:
[1] = test system: pro- and anti-inflammatory cytokine expression; assay: RT-PCR of inflammatory and reparative gene expression in heart and blood cells post-MI; type: in vivo, mice
Procedure: PureLink RNA Mini Kit (ThermoFisher Scientific) was used to isolate total mRNA from heart and blood cells according to manufacturer protocol. Isolated RNA was quantified using NanoDrop 8000 spectrophotometer (Thermofisher). Next, cDNA was generated using SuperScript VILO cDNA synthesis kit (Invitrogen). Using a QuantaStudio 7 Flex real-time thermocycler (Applied Biosystems by life technology), Reverse Transcription-Polymerase Chain Reaction (RT-PCR) was performed to measure the mRNA expression of markers identifying: inducible nitric oxide synthase (iNOS), tumor necrosis factor alpha (TNF-α), monocyte chemotactic protein-1 (MCP-1), transforming growth factor beta (TGF-β), interleukin-1 beta (IL-1β), interleukin-6 (IL-6), interleukin-4 (IL-4), chitinase-like3 Chil3 (YM1), interleukin-10 (IL10), arginase-1 (ARG-1), and Peroxisome proliferator-activated receptor gamma (PPARg). We used the comparative Ct method for relative estimation of mRNA expression which was normalized to 18s (a housekeeping gene). […]

[2] = test system: infarcted heart; assay: Masson's trichrome scar size 30 days post-MI; type: in vivo, mice; details: compared to controls
Procedure: Histological analysis was performed on deparaffinized and rehydrated sections as previously described (Al-Darraji, Haydar et al. 2018). Briefly, 30 day post-MI mice (N=6-10/treatment group) were sacrificed under isoflurane anesthesia and hearts were isolated. Hearts were perfused with PBS (VWR International) then by 10% buffered formalin (VWR International) at 75 mmHg. Perfused hearts were placed in 10% neutral buffered formalin (VWR) overnight at room temperature, then sectioned into 2-mm cross-sections starting at the level of coronary ligation then imbedded in paraffin and sectioned into 4-μm sections. Sections were stained with Masson's trichrome to evaluate scar size as previously described (Al-Darraji, Haydar et al. 2018). Digital images of stained sections were acquired, and areas of interest were assessed using NIH ImageJ […] software. The LV area, LV cavity area, and infarct area were measured as previously described (Al-Darraji, Haydar et al. 2018). Scar size was presented as a percentage of the total LV […].

[3] = test system: neutrophils; assay: Flow cytometry of neutrophils and N1 neutrophils in heart and blood post-MI; type: in vivo, mice; details: day 1 post-MI
Procedure: (§1) Cell phenotype, in addition to gene analyses, of monocytes and neutrophils were investigated in peripheral blood as previously described ([…] et al. 2018). Briefly, blood was collected in tubes with a 1:5 ratio of ethylene diaminetetraacetic acid (EDTA)/citrate-theophylline-adenosinedipyridamole (CTAD) on days 1, 3 and 7 post-MI. Whole blood was centrifuged for 5 minutes at 500×g, and the plasma layer was separated and reserved at -80° C. To lyse red blood cells, the residual cell pellet was incubated with 0.5 ml of diluted red blood lysing buffer (BD pharm lyse) for 10 minutes with mild agitation. To end the lysis process, 0.5 ml of staining buffer (5% goat serum, 0.05% sodium azide in phosphate-buffered saline) was added to the suspension of red blood cell lysed blood. Then, the suspension was centrifuged at 400×g for 5 minutes, and the supernatant was removed. This step was repeated if the red blood cells were still detectable in the cell pellet. White blood cell pellet was washed twice in staining buffer to remove any residual lysis buffer. After supernatant removal, the pellet was resuspended in a pre-determined volume of staining buffer and counted. […] Following incubation, cells were washed twice with staining buffer and analyzed by an LSR II (Becton Dickinson) in the University of Kentucky Flow Cytometry Core. […]

[4] = test system: heart; assay: Hemodynamic and ECG effects after retro-orbital administration; type: in vivo, mice; details: 40 mg/kg retro-orbital
Procedure: Mice were anaesthetized using 1%-3% isoflurane during Echocardiography to maintain heart rate of 450-500 BPM during imaging. A Vevo 3100 system coupled with a 15-7-MHz linear broadband transducer and a 12-5-MHz phased array transducer was used to perform Echocardiogram analyses. Heart function was examined at baseline (before cardiac surgery) then one-week and 4 weeks post-MI. During acquisition, a heating pad was used to preserve the body temperature at 37° C.; the temperature was continuously assessed by a rectal temperature probe. Using modified parasternal long-axis and short-axis, two-dimensional and Doppler echocardiography was used to assess the LV function and volume in M-mode. Tracings at the mid-papillary level to investigate the systolic and diastolic parameters and Teichholz formula were used to quantify LV function. Echocardiography imaging and analyses were carried out by a blinded investigator. Mice were anesthetized with 2% isoflurane, then placed on the ECG platform. Electrodes were inserted subcutaneously on the two front paws and the left rear paw followed by ECG recording for 2-3 minutes. Once the recording was completed, the data were analyzed using Chart software (PhysioTel).

[5] = test system: cardiac cells; assay: TUNEL and caspase-3 staining of apoptosis in the peri-infarct region; type: in vivo, mice; details: peri-infarct regions, 3 days post-MI, compared to vehicle control
Procedure: Cell apoptosis was examined on deparaffinized and rehydrated sections from mice (N=4/treatment group) sacrificed at day 3, as previously described ([…] et al. 2018). TUNEL and caspase-3 staining was performed in the Biospecimen Procurement and Translational Pathology Shared Resource Facility (BPTP SRF) at the University of Kentucky. Nucleated cells that stained positive were estimated. Quantification was performed using Cell Counter plugin for ImageJ (version 1.51d). Findings are presented as total positive cells per high power field in the peri-infract region. All measurements were obtained in the peri-infarcted areas only and analyzed by blinded observer.

[6] = cited from earlier work
[7] = test system: Ly6C^hi monocytes; assay: Flow cytometry of Ly6C^hi monocytes in heart and blood post-MI; type: in vivo, mice; details: first day after injury; effect disappears at later timepoints
Procedure: as §1

[8] = test system: macrophages; assay: Immunohistochemistry of macrophages in the peri-infarct zone; type: in vivo, mice
Procedure: Heart sections (N=4/treatment group) were prepared as described in the previous section. Immunostaining of heart sections was performed on deparaffinized and rehydrated sections as previously described (Al-Darraji, Haydar et al. 2018). Briefly, after deparaffinization and rehydration, sections were incubated with primary antibodies: rabbit anti-mouse IBA1 (Wako), goat anti-mouse CD206 (R and D Systems), and goat anti-mouse IL-1β (R & D Systems) overnight at 4° C., then washed and incubated with secondary antibodies conjugated to Alexa Fluor 488 or 594 (Invitrogen), followed by incubation with DAPI. In the peri-infarct area, 10-15 adjacent zones per section (1-2 sections/animal) were imaged at 40× magnification utilizing Nikon Confocal Microscope A1 in the University of Kentucky Confocal Microscopy facility. Nucleated cells that were antibody-positive were quantified using Cell Counter plugin for Nikon NIS-Elements (version AR 3.2). Findings are presented as total number of positive cells per high power field in the area of interest.

[9] = test system: macrophages; assay: Flow cytometry of macrophage phenotypes in the injured heart; type: in vivo, mice; details: heart post-MI, relative to Lazm
Procedure: Phenotypic cell analysis of macrophages and neutrophils and gene expression analysis was conducted in the heart as previously described ([…] et al. 2018). Briefly, mice were sacrificed, and hearts were rapidly isolated and placed in ice cold PBS (VWR International). Using a razor blade, the heart was minced manually. After mincing, tissue was incubated with a Collagenase B (Roche, Indianapolis, IN) and Dispase II (Roche, Indianapolis, IN) mixture at 37° C. for 30 minutes, with gentle agitation every 5-10 minutes. Tissue digestion ceased using cold staining buffer and the suspension was placed on ice and filtered using a 70 μm cell strainer, followed by centrifugation at 400×g for 5 mins at 4° C. Supernatant was discarded and the pellet was resuspended in 0.3 ml of staining buffer. Individual heart cells were divided into approximately three equal portions depending on cell counting with 10^6 live (trypan blue-negative) cells in each. Two portions were used for cell staining while the remainder was incubated with cell lysis buffer (Life technologies) using multiple aggressive agitations, for 10 minutes and reserved at -80° C. for further gene expression analysis. […] Cells were then washed twice with staining buffer and analyzed by an LSR II (Becton Dickinson) in the University of Kentucky Flow Cytometry Core. […]

[10] = target: IL-1β (Homo sapiens, UniProt P01584); details: cited from earlier work

| Compound | expression of anti-inflammatory cytokines and reparative macrophage markers (TGF-β, IL-10, IL-4, ARG, Fizz1, PPARγ, YM1) in cardiac tissue ([1]; consistent effects up to day 7) | mRNA levels of iNOS and pro-inflammatory cytokines (MCP-1, TNF-α, IL-6, IL-1β) in cardiac tissue ([1]; particularly days 1 and 3 post-infarct) | scar size (percentage of LV area) [2] | neutrophil counts in the heart [3] | QT interval [4] | RR ([4]; compared with baseline) | cardiac output ([4]; compared with baseline) | ejection fraction ([4]; compared with baseline) | heart rate ([4]; compared with baseline) | mortality during drug administration (40 mg/kg IV, post-MI) | survival (35 days post-MI, vs vehicle-treated mice) | TUNEL positive cells (late apoptosis) [5] | caspase-3 positive cells (early apoptosis) [5] | post-MI cardiac recovery ([6]; 160 mg/kg/day, orally, initiated 3 days pre-MI) | neutrophil counts ([6]; first study, mice receiving AZM) | Ly6C^hi (pro-inflammatory) monocytes in the heart [7] | reparative macrophages (CD206+) in peri-infarct zone ([8]; day 3 post-MI, compared to control groups) | expression of IL-1β in macrophages (IBA1+IL-1β+) ([8]; peri-infarct zones, 3 days post-MI, compared to controls) | immunomodulatory changes of heart macrophages (FACS) [9] | cardiovascular events reoccurrence [10] |
| --- | --- | --- | --- | --- | --- | --- | --- | --- | --- | --- | --- | --- | --- | --- | --- | --- | --- | --- | --- | --- |
| CC[C@H]1OC(=O)[C@H](C)[C@@H](O[C@H]2C[C@@](C)(OC)[C@@H](O)[C@H](C)O2)[C@H](C)[C@@H](O[C@@H]2O[C@H](C)C[C@H](N(C)C)[C@H]2O)[C@](C)(O)C[C@@H](C)CN(C)[C@H](C)[C@@H](O)[C@]1(C)O [free AZM, azithromycin] | significantly upregulated | substantially downregulated | significant reduction | did not see significant changes | prolonged | remarkably reduces | remarkably reduces | remarkably reduces | remarkably reduces | occurs during the drug administration due to severe changes in cardiac conduction and hemodynamic parameters | marked improvement in survival | remarkable reduction | remarkable reduction | enhances post-MI cardiac recovery | substantially decreased | significantly decrease in the first day after injury | significant increase | marked reduction | Less powerful immunomodulatory changes |  |
| canakinumab: monoclonal antibody targeting IL-1β |  |  |  |  |  |  |  |  |  |  |  |  |  |  |  |  |  |  |  | significantly decreases cardiovascular events reoccurrence |

Source: patent US11980687B2, “Liposomal compounds and methods of use thereof” (University of Kentucky Research Foundation, priority 2019, dated 2024)
